In brackets after ≈: the same amount, converted by molar mass.
Assays:
[1] = tested on: Enterococcus sp. (2105); test: Susceptibility (MIC50/MIC90), broth microdilution
Procedure: (§1) MICs were determined by the broth microdilution method according to CLSI methods (Clinical and Laboratory Standards Institute, 2005). Inoculants were incubated at 37° C. on cation adjusted Mueller Hinton (MH) Broth for 18 to 24 h. Compound were dissolved in media to 10 doubling dilutions from 128 to 0.125 μg/mL. All the bacterial strains were grown in 96 well plate with low evaporation lid (Falcon, Becton Dickinson) in presence of derivatives of benzimidazoles at 0.125, 0.25, 0.5, 1, 2, 4, 8, 16, 32, 64, 128, 256 μg/mL concentrations. […] Plates were read by Tecan Micro-plate Reader at 600 nm.

[2] = tested on: E. coli KK45; test: HN12b in combination with efflux pump inhibitors (CB method, FICI)
Procedure: (§2) 96-well microtiter plates containing MIC25 concentrations of the Efflux pump inhibitor (CCCP, PAβN) and HN12b antimicrobial drugs alone and in CB combination were used. The MICs of the individual drugs HN12b, PAβN and CCCP (0.25 to 128 μg/ml) and of the combinations were determined using the broth microdilution technique as recommended by the CLSI. Briefly, the broth microdilution plates were inoculated with each test organism to yield the appropriate density (10^5 CFU/ml) in 100 μl Mueller-Hinton broth (MHB) and incubated for 24 h at 37° C. in ambient air. One well with no antibiotic was used as a positive growth control on each plate. Plates were read for visual turbidity, and results were recorded after 24 h of incubation at 37° C. in ambient air by using a magnifying mirror reader, as turbidity in wells indicated growth of the microorganism. The MIC was determined as the well in the microtiter plate with the lowest drug concentration at which there was no visible growth. […] MICAB was defined as the MIC of drug A in the presence of drug B; MICBA was defined as the MIC of drug B in the presence of drug A.
(§3) The fractional inhibitory concentration index (FICI) was calculated for each antibiotic in each combination by using the following formula: FICA+FICB=FICI, where FICA equals the MIC of drug A in combination divided by the MIC of drug A alone and FICB equals the MIC of drug B in combination divided by the MIC of drug B alone. The FICIs were interpreted as follows: FICI of ≤0.5 will correspond to synergy; FICI of >0.5 to ≤1 will correspond to additivity; FICI of >1 to ≤4 will correspond to no interaction (indifference), and FICI of >4 will correspond antagonism.

[3] = tested on: Acinetobacter baumannii (AB387); test: Susceptibility (MIC50/MIC90), broth microdilution
Procedure: as §1

[4] = tested on: Klebsiella planticola (K1164); test: Susceptibility (MIC50/MIC90), broth microdilution
Procedure: as §1

[5] = tested on: E. coli 360^R; test: Susceptibility (MIC, PAE, MBC), broth microdilution; details: Escherichia coli
Procedure: as §1

[6] = biological target: E. coli Topoisomerase IA (Escherichia coli, UniProt P06612); test: Topoisomerase IA cleavage and religation assay; assay type: biochemical; details: biochemical assays and computational studies
Chain of E. coli Topoisomerase IA (P06612 whole entry): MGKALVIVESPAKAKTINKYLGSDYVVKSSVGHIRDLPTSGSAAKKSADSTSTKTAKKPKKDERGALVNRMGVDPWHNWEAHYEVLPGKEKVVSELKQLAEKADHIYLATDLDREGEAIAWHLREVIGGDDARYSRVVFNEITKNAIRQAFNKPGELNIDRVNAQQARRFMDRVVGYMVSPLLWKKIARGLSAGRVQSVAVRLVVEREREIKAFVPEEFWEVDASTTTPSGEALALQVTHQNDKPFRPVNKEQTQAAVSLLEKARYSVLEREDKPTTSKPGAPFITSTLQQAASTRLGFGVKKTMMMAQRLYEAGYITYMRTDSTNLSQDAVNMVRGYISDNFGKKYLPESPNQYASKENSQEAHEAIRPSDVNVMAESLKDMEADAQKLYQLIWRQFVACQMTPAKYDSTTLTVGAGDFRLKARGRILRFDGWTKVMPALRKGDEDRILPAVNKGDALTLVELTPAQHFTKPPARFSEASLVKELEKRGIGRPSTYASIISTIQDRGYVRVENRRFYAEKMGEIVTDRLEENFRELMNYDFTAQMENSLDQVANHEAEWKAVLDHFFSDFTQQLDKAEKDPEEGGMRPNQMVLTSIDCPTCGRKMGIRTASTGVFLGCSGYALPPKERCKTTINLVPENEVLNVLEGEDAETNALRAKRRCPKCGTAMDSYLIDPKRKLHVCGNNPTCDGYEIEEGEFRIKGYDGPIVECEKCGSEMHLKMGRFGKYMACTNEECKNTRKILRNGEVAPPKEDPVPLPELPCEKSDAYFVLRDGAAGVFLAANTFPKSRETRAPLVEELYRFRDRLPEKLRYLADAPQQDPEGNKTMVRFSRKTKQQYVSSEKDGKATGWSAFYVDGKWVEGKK
Procedure: Compounds at different concentrations were added to DNA cleavage reaction mixtures (20 μl) containing 50 mM TrisHCl, pH 7.5, 2 mM MgCl2 0.2 mM DTT, 0.5 mM EDTA, 30 μg/ml BSA, 25 μg/ml of pHOT1 having specific site for DNA, 40 units of E. coli Topoisomerase IA and ligands was incubated at 37° C. for 30 min. The reactions was then terminated by adding 1% SDS and 150 μg/m Proteinase K, and incubated further for 1 h at 37° C. The DNA samples was electrophoresed in 1% agarose gel in 0.5×TBE. Ethidium bromide at a finial concentration of 0.5 μg/ml was included in the gel to resolve slowly migrating nicked product (cleavable complex) from the supercoiled DNA molecules.

[7] = tested on: isogenic efflux deleted strains; test: Susceptibility of isogenic efflux deleted strains versus wild type; assay type: cell-based, Escherichia coli; details: in comparison to wild type strains
[8] = tested on: E. coli K12 mutant ΔompC; test: Susceptibility of E. coli K12 and mutants (MIC90); details: Escherichia coli
Procedure: as §1

[9] = tested on: Pseudomonas aeruginosa (Ps162); test: Susceptibility (MIC50/MIC90), broth microdilution
Procedure: as §1

[10] = tested on: Acinetobacter baumannii (MTCC1920); test: Susceptibility (MIC50/MIC90), broth microdilution
Procedure: as §1

[11] = tested on: E. coli K12 mutant ΔTopIA; test: Susceptibility of E. coli K12 and mutants (MIC90); details: Escherichia coli
Procedure: as §1

[12] = tested on: K. planticola (MTCC 2272); test: HN12b in combination with efflux pump inhibitors (CB method, FICI)
Procedure: as §2, §3

[13] = tested on: K. planticola (1164); test: as above
Procedure: as §2, §3

[14] = tested on: E. coli 132^R; test: Susceptibility (MIC, PAE, MBC), broth microdilution; details: Escherichia coli
Procedure: as §1

[15] = tested on: Pseudomonas aeruginosa (MTCC 366); test: Susceptibility (MIC50/MIC90), broth microdilution; details: MTCC366
Procedure: as §1

[16] = Synergistic effect of CCCP and HN12b in neutropenic thigh infection model; assay type: in vivo, Balb/c mice; details: HN12b 3 mg/kg bw + CCCP 3 mg/kg bw
[17] = tested on: E. coli ATCC 25922; test: Neutropenic thigh infection model
Procedure: The neutropenic mice thigh infection model, fully described by. Craig, was used in this study. Female Balb/c mice (6 mice per dosing group) weighing 20-25 g were rendered neutropenic with 2 intraperitoneal injections of cyclophosphamide (150 mg/kg of body weight 4 days prior to bacterial inoculation and 100 mg/kg 1 day before inoculation) 2 h prior to bacterial inoculation. […] Bacteria were injected into the right thigh of each mouse at time zero. […] Neutropenia was defined as an absolute neutrophil count of 500 polymorphonuclear leukocytes/cm^3 of blood. The bacterial suspension was diluted to a concentration of 10^6 CFU/mL with normal saline. Then, 0.1 mL of the bacterial suspension was injected into each posterior thigh muscle 2 h after the second dose of cyclophosphamide was administered. […] Twenty-four hours after drug treatment was begun, the mice were humanely sacrificed. Right thigh muscles from each mouse were aseptically collected, homogenized and serially diluted 1:10 in phosphate buffer saline, and processed for quantitative cultures.

[18] = tested on: E. coli K12 mutant ΔacrA; test: Susceptibility of E. coli K12 and mutants (MIC90); details: Escherichia coli
Procedure: as §1

[19] = tested on: Providencia sp. (P592); test: HN12b in combination with efflux pump inhibitors (CB method, FICI)
Procedure: as §2, §3

[20] = biological target: E. coli Topoisomerase IA (EcTopoIA) (Escherichia coli, UniProt P06612); test: Topoisomerase IA relaxation inhibition assay; assay type: biochemical; details: compared to DMA
Chain of E. coli Topoisomerase IA (EcTopoIA) (P06612 whole entry): as above
Procedure: E. coli Topoisomerase IA (EcTopoIA) purified protein was diluted in buffer (10 mM Tris-HCl pH 8.0, 50 mM NaCl, 0.1 mg/mL gelatin, 0.5 mM MgCl2). Compounds were added in concentrations 1, 5, 10, 25 and 50 μM to 10 ng of the diluted enzyme present in 20 μL reaction volume. 500 ng of supercoiled pHOT plasmid DNA purified by Qiagen Maxiprep Kit was added. The mixture was incubated at 37° C. for 30 min before termination of the reaction and analysed by agarose gel electrophoresis without Ethidium bromide. The gels were then stained with ethidium bromide which was further photographed over UV transilluminator and analysed by performing densitometry.
Mechanism of inhibition was determined by performing relaxation assay in three different conditions. First, relaxation assay was done with increasing concentrations of Mg^2+ from 0 to 50 mM to find out optimum concentration of Mg^2+ required by EcTopo 1A. Second, relaxation assay was performed with increasing concentration of Mg^2+ in the presence of 5 μM compound and third, reaction we have increased the concentration of compound from 5 to 100 μM in a buffer with 25 mM of MgCl2.

[21] = tested on: Salmonella typhimurium (MTCC 1251); test: Susceptibility (MIC50/MIC90), broth microdilution; details: Salmonella enterica
Procedure: as §1

[22] = K. planticola (MTCC 2272), HN12b + CCCP
[23] = K. planticola (1164), HN12b + CCCP
[24] = Providencia sp. (P592), HN12b + PAβN

`CCCN1CCN(c2nc3ccc(-c4nc5ccccc5[nH]4)cc3[nH]2)CC1` [HN12b, 2′-(4-propylpiperazine-1-yl)-1H, 3′H-2,5′-bibenzimidazole] gave an MIC50 [1] of 28.4 mg/L (≈ 78.8 µM), an MIC90 [1] of 128 mg/L (≈ 355 µM) and an FICI ([2]; E. coli KK45, HN12b + CCCP) of 0.3. The Interpretation ([2]; E. coli KK45, HN12b + CCCP) was “Synergy (FICI of ≤0.5 will correspond to synergy)”, the FICI ([2]; E. coli KK45, HN12b + PAβN) was 0.7 and the MIC90 ([2]; Escherichia coli, KK45) was 16 mg/L. For the same compound, the MIC50 [3] was 3.25 mg/L (≈ 9.02 µM), the MIC90 [3] was 8 mg/L (≈ 22.2 µM) and the MIC50 [4] was 34.4 mg/L (≈ 95.5 µM). It also gave an MIC90 [4] of 124 mg/L (≈ 344 µM), an MBC [5] of 2 mg/L (≈ 5.55 µM) and an MIC50 [5] of 1 mg/L (≈ 2.77 µM). For the same compound, the MIC90 [5] was 1.6 mg/L (≈ 4.44 µM), the “mechanism of inhibition (Mg^2+ chelation)” value [6] was “chelates Mg^2+ required for, the religation of DNA” and the “sensitisation of efflux deleted strains” value [7] was “more sensitised”. It also gave an MIC90 [8] of 3.8 mg/L (≈ 10.5 µM), an MIC50 [9] of 2.94 mg/L (≈ 8.16 µM) and an MIC90 [9] of 5.94 mg/L (≈ 16.5 µM). The MIC50 [10] was greater than 128 mg/L, the MIC90 [10] was 128 mg/L (≈ 355 µM) and the MIC90 [11] was 2.8 mg/L (≈ 7.77 µM). For the same compound, the FICI [12, 22] was 0.5, the Interpretation [12, 22] was “Synergy (FICI of ≤0.5 will correspond to synergy)” and the FICI ([12]; K. planticola (MTCC 2272), HN12b + PAβN) was 1. For the same compound, the MIC90 ([12]; Klebsiella planticola, MTCC2272) was greater than 128 mg/L, the FICI [13, 23] was 0.5 and the Interpretation [13, 23] was “Synergy (FICI of ≤0.5 will correspond to synergy)”. It also gave an FICI ([13]; K. planticola (1164), HN12b + PAβN) of 1, an MIC90 ([13]; Klebsiella planticola) of 128 mg/L and an MBC [14] of 4 mg/L (≈ 11.1 µM). The MIC50 [14] was 2 mg/L (≈ 5.55 µM), the MIC90 [14] was 3.5 mg/L (≈ 9.71 µM) and the MIC50 [15] was 19 mg/L (≈ 52.7 µM). The MIC90 [15] was 128 mg/L (≈ 355 µM), the “in vivo efficacy in combination with CCCP” value [16] was “further improves” and the in vivo efficacy ([17]; Neutropenia thigh model, E. coli ATCC 25922) was “good in vivo efficacy”. For the same compound, the “Dose at 1 log reduction” value ([17]; Neutropenic Thigh, ATCC25922) was 3 mg/kg/bw/day, the “Dose at 3 log reduction” value ([17]; Neutropenic Thigh, ATCC25922) was 5 mg/kg/bw/day and the MIC90 [18] was 0.87 mg/L (≈ 2.41 µM). For the same compound, the MIC90 ([19]; Providencia) was 58 mg/L, the FICI ([19]; Providencia sp. (P592), HN12b + CCCP) was 0.6 and the FICI [19, 24] was 0.4. For the same compound, the Interpretation [19, 24] was “Synergy (FICI of ≤0.5 will correspond to synergy)”, the “Topoisomerase Inhibition activity” value [20] was “improved Topoisomerase Inhibition activity as compared to DMA” and the MIC50 [21] was less than 0.25 mg/L. The MIC90 [21] was less than 0.25 mg/L.

— US11434227B2, “Broad spectrum antibacterial activity of novel bisbenzimidazoles targeting topoisomerase IA and the synergistic composition of bisbenzimidazole with efflux pump inhibitors against pathogenic bacteria” (Jawaharlal Nehru University (JNU), priority 2016, dated 2022)
